The values below come from patent US20240252581A1, “COMPOSITIONS AND METHODS FOR TREATING RESPIRATORY DISTRESS” (S.I.S. SHULOV INNOVATIVE SCIENCE LTD., priority 2021, published 2024).

Square brackets hold non-standard residues; d marks the D form. * marks the point of attachment. pGlu = O=C1CC[C@@H](C(=O)O)N1; Octanoyl = CCCCCCCC(=O)*

The nature of this experiment: Oxygen saturation in mouse model of LPS-inflamed lungs (Rodent Pulse Oximeter). The format is in vivo, Balb/C female mice. As to the method:
Evaluation of the effect of ZEP3Na administration via inhalation on oxygen saturation in a mouse model of inflamed lungs by the lipopolysaccharides (LPS) was performed. Oxygen saturation testing was performed at several time points on mice that have been anesthetized by isoflurane. A sensor was attached to the hind foot of the mice and the percentage of oxygen in the blood was measured using the Rodent Pulse Oximeter instrument (Kent Scientific).
Following LPS intratracheal instillation, a marked reduction in blood oxygen saturation levels was detected. ZEP3Na was then administered by inhalation at two doses 6 h and 14 h after LPS administration and the effect of ZEP3Na on blood oxygen saturation was monitored 0, 2, 6, 12, 24 and 48 hours following ZEP3Na administration. Saturation data was analyzed by ANOVA followed by Tukey-Kramer test. Significance level was defined as ∝=0.05.

As to “pGlu-Asn-Trp-Lys(Octanoyl)-OH ([pGlu]NWK(Octanoyl)-OH; SMILES CCCCCCCC(=O)NCCCC[C@H](NC(=O)[C@H](Cc1c[nH]c2ccccc12)NC(=O)[C@H](CC(N)=O)NC(=O)[C@@H]1CCC(=O)N1)C(=O)O) [ZEP3]”, the “time after administration over which increase in oxygen saturation was exerted” value (acute inflamed lung model) is listed as “at least 48 hours”. For the same substance, the “time following treatment at which increase in oxygen saturation is statistically significant” value (administration by inhalation, LPS model) worked out at 12 h.
